The values below come from paper PMC5659136, “Peptide mimetics of immunoglobulin A (IgA) and FcαRI block IgA‐induced human neutrophil activation and migration” (European Journal of Immunology, 2017).

The subject of assay [1] is neutrophils. The assay can be described thus: In vitro neutrophil migration to IgA-coated beads. It counts as cell-based, human. As to conditions: fluorimeter; for block of IgA-induced neutrophil migration (in words): oxidated or small cyclic peptides, 3 independent experiments in triplicates, Supporting Information Fig. 2. The protocol: Figure 3 Peptide mimetics block IgA‐induced migration in vitro. Percentage of migration of fluorescently labelled neutrophils to IgA‐coated beads, either in the presence or absence of peptide mimetics. The number of migrated neutrophils was determined with a fluorimeter. Neutrophil migration to IgA was normalized to 100% (dotted line). Neutrophils or beads were pre‐incubated with (A) linear or (B) cyclic peptides mimicking FcαRI‐sequences (white bars) or IgA‐sequences (black bars). Data are representative of three independent experiments, performed in triplicates. Mean ± SD is shown. Statistical analysis: ANOVA *p< 0.05, **p < 0.01.
(§1) In vitro migration assays were performed as previously described 4. All experiments were performed in triplo. Migration towards IL‐8 (30 ng/mL) was measured after pre‐incubating neutrophils with peptides (1 μg/mL) or anti‐IL‐8 blocking antibody (10 μg/mL, Pharmingen).
Supporting Information Figure 2 […]
Percentage of migration of fluorescently labelled neutrophil to IgA-coated beads, either in the presence or absence of peptide mimetics. The number of migrated neutrophils was determined with a fluorimeter. Neutrophil migration to IgA was normalized to 100% (dotted line). Neutrophils or beads were pre-incubated with (A) oxidated or (B) small cyclic peptides mimicking FcαRI-sequences (white bars) or IgA-sequences (black bars). Data are representative of 3 independent experiments, performed in triplicates. Mean ± SD of one representative experiment is shown. Statistical analysis: ANOVA

The subject of assay [2] is neutrophils. Kind of assay: Ex vivo human skin migration assay (IgA-coated beads injected in the dermis). It counts as cell-based. The conditions noted are these: full thickness human skin grafts; peptide 1 μg/mL, pre-incubation 20 min, 4°C; incubated overnight (24 h) at 37°C; fluorescence microscopy; three independent experiments in duplicate; Fig. 4. From the text: To mimic blocking of neutrophil migration toward aberrant IgA‐antigen complexes in the skin, an ex vivo migration assay was established. […] No influx toward BSA‐coated beads was observed, whereas massive influx of neutrophils toward the injected IgA‐coated beads was observed (Fig 4A).
Figure 4 Peptide mimetics block neutrophil migration and penetrate the dermis in an ex vivo human skin model. Migration of green‐fluorescent neutrophils to BSA‐ (left panel) or IgA‐ (right panel) coated beads (indicated with circles) in the dermis of ex vivo skin explants (A). Migration of green‐fluorescent neutrophils to IgA‐coated beads (indicated with circles) after pre‐incubation with non‐blocking peptide FcαRI9‐ox (B), linear peptides (C) or cyclic CLIPS‐peptides (D). Images are representative of three independent experiments, performed in duplicate. Scale bar = 250 μm. Images are 10× magnified.
For ex vivo human skin migration assays, full thickness mammary skin grafts (epidermis and dermis) were placed in an ex vivo tissue incubation chamber with the dermis face up 6, 49. IgA‐coated beads were pre‐incubated with FcαRI‐peptides (1 μg/mL, 20 min, 4°C) and injected intracutaneously via the dermis. BSA‐coated beads were used for control. Next, PKH‐67 labeled neutrophils (4 × 10^6 cells/well) were added on the dermis. Alternatively, IgA‐coated beads were injected intracutaneously and PKH‐67 labeled neutrophils (4 × 10^6 cells/well) that were pre‐incubated with IgA‐peptides (1 μg/mL, 20 min, 4°C) were added onto the dermis. Cells were supplemented with IFN‐γ to prevent early apoptosis (300 units/mL; Boehringer Ingelheim, Ingelheim am Rhein, Germany). Skin was incubated overnight at 37°C, after which biopsies of the injected skin were taken and snap frozen. Cryosections of 6 μm were analysed with a Nikon eclipse e800 (Nikon instruments Europe BV, Amsterdam, The Netherlands).

In assay [3] the test system is neutrophils. Kind of assay: IL-8 induced chemotaxis of neutrophils. Type of assay: cell-based, human. The conditions noted are these: IL-8 30 ng/mL; neutrophils pre-incubated with peptides 1 μg/mL; fluorimeter; three times in triplo; Supporting Information Fig. 3. The protocol: as §1
Supporting Information Figure 3 […]
medium IL-8anti-IL-8IgA1-linFcĮRI1-linFcĮRI9-ox
Number of fluorescently labelled neutrophils which migrated to IL-8 in a chemotaxis chamber, either in the presence or absence of peptide mimetics. The number of migrated neutrophils was determined with a fluorimeter. Neutrophil migration to IL-8 is indicated with a dotted line.
Medium and blocking IL-8 antibody (anti-IL-8) were used as controls. Experiments were performed three times in triplo. Mean ± SD of one representative experiments in triplo is shown.
Statistical analysis: ANOVA

Assay [4] relates to IgA binding to FcαRI (on neutrophils). Kind of assay: Ligand binding assay: neutrophil binding to IgA-coated plates. Type of assay: cell-based. The conditions noted are these: peptide 1 μg/mL, pre-incubation 20 min, 4°C, calcein labeled human neutrophils 2.5 × 10^5 cells/well, 37°C, fluorimeter, three independent experiments in triplicates, Fig. 1. The protocol:
Figure 1 Peptide mimetics inhibit IgA binding to FcαRI. Percentage of ligand binding between IgA and FcαRI (on neutrophils), either in the presence or absence of peptide mimetics. Fluorescently labelled human neutrophils, isolated from blood, were added to IgA‐coated plates, and the number of neutrophils attaching to the plate was measured with a fluorimeter. IgA binding to FcαRI was normalized to 100% (indicated with dotted line). Neutrophils or plates were pre‐incubated with either linear peptides (A) or cyclic CLIPS‐peptides (B) mimicking FcαRI‐sequences (white bars) or IgA‐sequences (black bars). Data are representative of three independent experiments, performed in triplicates. Mean is shown, error bars refer to SD (n = 3). Statistical analysis: ANOVA*p< 0.05, **p < 0.01.
Neutrophils were isolated from heparinized peripheral human blood from healthy donors after informed consent was given, using standard Lymphoprep (Axis‐shield, Dundee, Scotland) density gradient centrifugation. […]
Plates (Nunc‐ImmunoMaxiSorp™, Roskilde, Denmark) were coated with IgA, or BSA (as control) (10 μg/mL, 3 h, 37°C), washed and pre‐incubated with FcαRI‐peptides (1 μg/mL, 20 min, 4°C). […] Attached cells were lysed and fluorescence of supernatant was measured with a fluorimeter (485 nm excitation/520 nm emission filters; Fluostar Galaxy, BMG Labtechnologies, Offenburg, Germany), as measure of binding. […]

Positions of bridges follow the written chain, without caps; N, C: chain ends. No end group written: not given here.

For “CEALPLAFTCKT (also: sidechain bridge or staple (positions not given here)) [IgA2‐CLIPS]”, the “block of IgA-induced neutrophil migration (in words)” value (“block … (in words)” for short) in the assay with neutrophils [1] is listed as “do not block”.
As to “CHYRFRC (also: sidechain bridge or staple (positions not given here)) [FcαRI3‐CLIPS]”, the “block … (in words)” value with neutrophils [1] is listed as “do not block”.
“GRYQAQCRIGHYRFCYSD (disulfide 7-15 (inferred)) [FcαRI9‐ox]”: the “neutrophil migration to IgA-coated beads in ex vivo human skin” value in the assay on neutrophils [2] is “did not inhibit”. Also, the “effect on IL-8 induced chemotaxis” value in the assay with neutrophils [3] is recorded as “do not block”. Besides, the “block … (in words)” value in the assay with neutrophils [1] is “do not block”.
Regarding “RYQAQCRIGHYRFC (disulfide 6-14 (inferred)) [FcαRI6‐ox]”, in the assay with neutrophils [1], the “block … (in words)” value is given as “do not block”.
Still for that read-out and setting: then “SCEALPLAFTCKT (also: sidechain bridge or staple (positions not given here)) [IgA3‐CLIPS]”, with “do not block”.
Take “SSCVGHEALPLAFTCKT (also: sidechain bridge or staple (positions not given here)) [IgA7‐CLIPS]”: the “neutrophil migration to IgA-coated beads in ex vivo human skin” value in the assay with neutrophils [2] is recorded as “fully abrogated”.
Consider “SSCVGHEALPLAFTCKT (disulfide 3-15 (inferred)) [IgA7‐ox]”, for which the “block … (in words)” value in the assay with neutrophils [1] is given as “do not block”.
The same measure, in the same setting: with “SSMCGHEALPLAFCQKT (disulfide 4-14 (inferred)) [IgA6‐ox]” the entry was “do not block”.
As for SSMVGHEALPLAFTQKT [IgA1‐lin], the “neutrophil migration to IgA-coated beads in ex vivo human skin” value with neutrophils [2] is given as “completely blocked”. Moreover, the “effect on IL-8 induced chemotaxis” value in the assay on neutrophils [3] is given as “do not block”. For the same substance, the “block of neutrophil migration to IgA-coated beads” value with neutrophils [1] (neutrophils or beads pre-incubated with peptides, three independent experiments in triplicates, Fig. 3) is 60–80%. Also, the “blocking of neutrophil binding to IgA-coated wells” value in assay [4] was “approximately 50%”.
Take “YQACHYRFRC (also: sidechain bridge or staple (positions not given here)) [FcαRI5‐CLIPS]”: in the assay with neutrophils [1], the “block … (in words)” value was “do not block”.
